The source of these data is patent US5403824A, “Methods for the treatment of osteoporosis” (The Procter & Gamble Company, priority 1993, dated 1995).

Square brackets hold non-standard residues; d marks the D form. Peptide text beside a SMILES is read from it. dMet(O) = CS(=O)CC[C@@H](N)C(=O)O; Phe(ol) = N[C@H](CO)Cc1ccccc1

Test [1] concerns Rat osteoblast-like cells (ROS 17/2.8). The test is described as follows: [3H]-thymidine incorporation, proliferation of osteoblast-like cells. To be noted: ROS 17/2.8, 18 hrs incubation, 2 hrs pulse. The class given is cell-based. An excerpt:
Stimulation of osteoblast-like cell proliferation can be measured according to several art-recognized in vitro models. One such model is described in European Patent Publication No. 384,731, by Rodan et al, published Aug. 29, 1990, which is incorporated herein by reference. (Applicants have modified this method by reducing regent volumes to one-quarter those described and by utilizing Dulbecco's Modified eagle's Medium (DMEM).) In this model, proliferation (division) of, for example, rat osteoblast-like cells (rat osteosarcoma (ROS) cells, rat calvaria cells, etc.) is observed by measuring the amount of radiolabeled thymidine ([^3 H]thymidine) incorporated by these cells. ([^3 H]thymidine is "incorporated" by cellular DNA being synthesized as a result of cell proliferation.) The greater the level of [^3 H]thymidine measured, the greater the amount of proliferation of the osteoblast cells.
More specifically, a test sample (comprised of a test compound and osteoblast-like cells) and a control sample (comprised of only osteoblast-like cells) are pulsed with [^3 H]thymidine. The amount of [^3 H]thymidine incorporated by the cells is measured using a direct beta counter.
Rat osteoblast-like cells (ROS 17/2.8) are plated at 4×10^3 cells/well in a 96-well plate in Dulbecco's Modified eagle's Medium supplemented with 2% (v/v) Fetal Bovine Serum, and incubated for 6 hrs. Control (serum-free) medium and test medium (test sample and serum-free medium) are then added to the cells and this combination is incubated for 18 hrs. The cells are then pulsed with [^3 H]-thymidine (1 μCi/well) for 2 hrs. The medium is then removed, the cells are harvested onto glass fibre filters and the amount of [^3 H]-thymidine (counts per minute per well) incorporated into DNA is then determined using a direct beta counter. Values for control groups are then compared to values for treated groups.
The compound H-Tyr-D-Ala-Gly-Phe-D-Leu-OH ("DADLE") is screened to determine whether it stimulates proliferation of osteoblast-like cells. […] The medium is then removed, the cells are harvested onto glass fibre filters, and the amount of ^3 H-thymidine (counts per minute per well) incorporated into DNA is determined using a direct beta counter. […]
The compound Tyr-D-Cys(S-t-butylthioether)-Gly-Phe-Leu-Thr(O-t-butylether) ("BUBUC") is screened to determine whether it stimulates proliferation of osteoblast-like cells. […] The medium is then removed, the cells are harvested onto glass fibre filters, and the amount of ^3 H-thymidine (counts per minute per well) incorporated into DNA is determined using a direct beta counter. […]
(Uptake of a labelled nucleoside into DNA is a usual measure of proliferation.)

In another test the target is mu opioid receptor (Cavia porcellus, UniProt A0ACM8Q262). Briefly: inhibition of [3H]DAGO binding, method of Goldstein et al. Further details: species or system guinea pig. As to conditions: radioligand [3H]DAGO. The text has this:
Affinity for mu opioid receptors can be measured by any of several art-recognized in vitro models. One such model is described by A. Goldstein et al., "Multiple Opioid Receptors: Ligand Selectivity Profiles and Binding Site Signatures", 36 […] 265-272 (1989), which is incorporated herein by reference. According to this model, a test compound is screened for its ability to inhibit binding of a mu-selective radiolabeled ligand ("mu-selective radiolabeled ligand" refers to a radiolabeled compound that is known to have selective affinity for mu opioid receptors) to mu opioid receptor binding sites. More specifically, this in vitro model compares test samples (comprising a mu-selective radiolabeled ligand ("hot ligand"); the non-radiolabeled equivalent to the "hot ligand" ("cold ligand"); test compound at varying concentrations in each test sample; and mu opiate receptor material) and a control sample (comprising hot ligand; cold ligand; and mu opiate receptor material).
Following the protocol set forth by Goldstein et al., the samples are assayed for relative radioactivity.
In assessing a compound's in vitro affinity for mu opioid receptors according the method described by Goldstein et al., the mu-selective radiolabeled ligand (i.e., "hot ligand") is preferrably [^3 H]Tyr-D-Ala-Gly-N-methyl-Phe-Gly(ol) ("[^3 ]DAGO" or "hot DAGO"). […]

Test [2] deals with human subject with postmenopausal osteoporosis or low bone mass. Briefly: treatment of human subject with osteoporosis, vertebral density by dual-energy photon absorptiometry. As to conditions: 30 mg intravenously daily (substitutes at comparable levels), 28 days active / 28 days calcium, two years. The class given is in vivo. As to the method:
A human subject weighing about 60 kg (132 lbs), suffering from postmenopausal osteoporosis, is treated by a method of this invention. Specifically, for two years, the enkephalin-degrading enzyme inhibitor DL-3-mercapto-2-benzylpropanoylglycine is administered orally, in a cyclical regimen, where each cycle consists of an active period of 28 days during which a tablet containing 160 mg of said inhibitor is administered each day, followed by a non-active period of 28 days during which the subject receives a daily supplement of calcium (1,000 mg/day), with repeat of cycle.
A human subject weighing about 60 kg (132 lbs), suffering from postmenopausal osteoporosis, is treated by a method of this invention. Specifically, for two years, the compound H-Tyr-D-Ala-Gly-Phe-D-Leu-OH ("DADLE") is administered to the subject, in a cyclical regimen, where each cycle consists of an active period of 28 days during which a solution containing 30 mg of DADLE is administered intravenously every day, followed by a non-active period of 28 days during which the patient receives a daily supplement of calcium (1,000 mg/day), with repeat of cycle.
A human subject weighing about 60 kg (132 lbs), suffering from postmenopausal osteoporosis, is treated by a method of this invention. Specifically, for two years, an enkephalin of the formula Tyr-D-Cys(S-t-butylthioether)-Gly-Phe-Leu-Thr(O-t-butylether) ("BUBUC") is administered to the subject, in a cyclical regimen, where each cycle consists of an active period of 28 days during which a solution containing 30 mg of BUBUC is intravenously administered each day, followed by a non-active period of 28 days during which the patient receives a daily supplement of calcium (1,000 mg/day), with repeat of cycle.
A human subject weighing about 60 kg (132 lbs), suffering from postmenopausal osteoporosis, is treated by a method of this invention. Specifically, for two years, the enkephalin secretagogue Tyr-Arg^1, is administered to the subject, in a cyclical regimen, where each cycle consists of an active period of 28 days during which a solution containing 30 mg of Tyr-Arg is intravenously administered each day, followed by a non-active period of 28 days during which the subject receives a daily supplement of calcium (1,000 mg/day), with repeat of cycle. […]
A human subject weighing about 60 kg (132 lbs), suffering from postmenopausal osteoporosis, is treated by a method of this invention. Specifically, each day for five years, the subject is administered 3 tablets, comprised as follows.
A human subject weighing about 60 kg (132 lbs) is evaluated approximately four years after spontaneous menopause, and is found to have low bone mass. The subject is then treated by a method of this invention to treat osteoporosis. Specifically, once each month for five years, the subject is administered, via intravenous injection, 5 ml of a solution comprised as follows.

Chain of mu opioid receptor (A0ACM8Q262 1-400): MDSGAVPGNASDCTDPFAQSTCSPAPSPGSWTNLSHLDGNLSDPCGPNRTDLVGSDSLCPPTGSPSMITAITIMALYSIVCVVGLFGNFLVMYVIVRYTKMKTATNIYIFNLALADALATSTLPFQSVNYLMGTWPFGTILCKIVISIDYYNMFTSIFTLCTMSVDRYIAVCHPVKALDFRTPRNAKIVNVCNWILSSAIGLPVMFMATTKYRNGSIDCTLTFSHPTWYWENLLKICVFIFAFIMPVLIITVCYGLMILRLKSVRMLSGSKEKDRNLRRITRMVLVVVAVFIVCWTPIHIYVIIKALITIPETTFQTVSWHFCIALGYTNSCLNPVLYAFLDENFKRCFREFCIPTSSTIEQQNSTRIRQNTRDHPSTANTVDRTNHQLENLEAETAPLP

As for `CC(C)C[C@@H](NC(=O)[C@H](Cc1ccccc1)NC(=O)CNC(=O)[C@@H](C)NC(=O)[C@@H](N)Cc1ccc(O)cc1)C(=O)O` [DADLE, H-Tyr-D-Ala-Gly-Phe-D-Leu-OH], the “[3H]-thymidine incorporation (proliferation) vs control” value in test [1] is on record as “significantly stimulated proliferation of the osteoblast-like cells”. Besides, at mu opioid receptor, the “in vitro mu opioid receptor affinity (IC50 ≤1000 times the IC50 of non-radiolabeled DAGO)” value is recorded as “significant in vitro mu opioid receptor affinity”. For the same molecule, the figures for the “density of vertebrae / bone mass” value in test [2] and in test [2] (listed as H-Tyr-D-Ala-Gly-Phe-D-Leu) were “an increase in bone mass” and “substantially similar results”, respectively.
Consider `C[C@@H](NC(=O)[C@@H](N)Cc1ccc(O)cc1)C(=O)NCC(=O)N(C)[C@@H](Cc1ccccc1)C(=O)N[C@H](CO)CC[S+](C)[O-]` (stereo partly drawn) [H-Tyr-D-Ala-Gly-N-methyl-Phe-Met(sulfoxide)(ol)], for which, in test [2], the “density of vertebrae / bone mass” value was “substantially similar results”.
On the same count and under the same terms, the same measure for `CC(C)C[C@H](NC(=O)[C@H](Cc1ccccc1)NC(=O)CNC(=O)[C@@H](C)NC(=O)[C@@H](N)Cc1ccc(O)cc1)C(N)=O` [H-Tyr-D-Ala-Gly-Phe-Leu-NH2]: “substantially similar results”; for `CSCC[C@H](NC(=O)[C@H](Cc1ccccc1)NC(=O)CNC(=O)[C@@H](C)NC(=O)[C@@H](N)Cc1ccc(O)cc1)C(N)=O` [H-Tyr-D-Ala-Gly-Phe-Met-NH2]: “substantially similar results”; for `CSCC[C@H](NC(=O)[C@H](Cc1ccccc1)NC(=O)[C@@H](C)NC(=O)[C@@H](N)Cc1ccc(O)cc1)C(N)=O` [H-Tyr-D-Ala-Phe-Met-NH2] (H-Y[dA]FM-NH2): “substantially similar results”.
Same read-out and setting: next, `C[S+]([O-])CC[C@@H](NC(=O)[C@@H](N)Cc1ccc(O)cc1)C(=O)NCC(=O)N[C@H](CO)Cc1ccccc1` (stereo partly drawn) [H-Tyr-D-Met(O)-Gly-Phe(ol)] (H-Y[dMet(O)]G[Phe(ol)]): “substantially similar results”; `CSCC[C@@H](NC(=O)[C@@H](N)Cc1ccc(O)cc1)C(=O)NCC(=O)N[C@@H](Cc1ccccc1)C(=O)N1CCC[C@H]1C(N)=O` [H-Tyr-D-Met-Gly-Phe-Pro-NH2] (H-Y[dM]GFP-NH2): “substantially similar results”; `CC(C)C[C@H](NC(=O)[C@H](Cc1ccccc1)NC(=O)CNC(=O)[C@@H](COC(C)(C)C)NC(=O)[C@@H](N)Cc1ccc(O)cc1)C(=O)N[C@H](C(=O)O)[C@@H](C)OC(C)(C)C` [H-Tyr-D-Ser(O-t-butylether)-Gly-Phe-Leu-Thr(O-t-butylether)]: “substantially similar results”.
Turning to `CC(C)C[C@H](NC(=O)[C@H](Cc1ccccc1)NC(=O)CNC(=O)[C@@H](COC(C)(C)C)NC(=O)[C@@H](N)Cc1ccc(O)cc1)C(=O)N[C@H](C(=O)O)[C@@H](C)O` [H-Tyr-D-Ser(O-t-butylether)-Gly-Phe-Leu-Thr], the “density of vertebrae / bone mass” value in test [2] is on record as “substantially similar results”.
Still for that read-out and setting: next, “H-(2,6-dimethyl-Try)-D-Ala-NH-phenylpropyl”: “substantially similar results”; H-Tyr-D-Pen-Gly-Phe-Pen: “substantially similar results”.
